Results published in patent US10233182B2, “Substituted spirocyclic inhibitors of autotaxin” (X-Rx, Inc., priority 2014, dated 2019).

Biological target: Autotaxin (Homo sapiens (Human), UniProt Q13822)
Test: Autotaxin LPC Cascade Assay
Type: biochemical
Conditions: Autotaxin 5 nM, LPC 100 μM, choline oxidase/HRP/Ampliflu Red fluorescence read-out, 2% DMSO, RT; read-out: IC50 ATX Activity
Experimental: Autotaxin LPC Cascade Assay:
HA130 and Test Compounds:
Prepare a 1 mM stock of HA130 and a 3 mM stock of each compound in 100% DMSO. Perform a 1:3 serial dilution in DMSO (transfer 5 l of compound to 10 l of DMSO). Add 240 l of buffer to generate a top working concentration of 40 µM (HA130) and 120 µM (test compound) in 4% DMSO.
Ampliflu Red—Prepare a stock of 5 mM from 100 mM in 100% DMSO. Further dilute to a working concentration of 400 μM in buffer (8% DMSO).
Together with compound this yields a 2% DMSO final concentration.
Choline Oxidase/HRP—0.8 U/mL CO and 8 U/mL HRP.
Incubate for 10 mins at RT. Add 5 µl of LPC and incubate for 1 hr on the plate shaker. Prepare the CO/HRP and AR immediately prior to use. Add 2.5 l of CO/HRP and follow with 2.5 l AR. Note order of addition, CO/HRP mix before AR. Read fluorescence intensity (ex/em: 530/590 nm) kinetically for 30 min at RT on the Tecan M1000.

Row | SMILES | IC50
1 | COc1cc(CN2C(=O)N(C)C(=O)C23CCN(C(=O)[C@H](NC(=O)c2cc(C(F)(F)F)ccc2F)C(C)C)CC3)ccn1 [Example 94, (R)-2-Fluoro-N-(1-(1-((2-methoxypyridin-4-yl)methyl)-3-methyl-2,4-dioxo-1,3,8-triazaspiro[4.5]decan-8-yl)-3-methyl-1-oxobutan-2-yl)-5-(trifluoromethyl)benzamide] | < 500 nM
2 | CC(C)[C@@H](NC(=O)c1cc(C(F)(F)F)ccc1F)C(=O)N1CCC2(CC1)NC(=O)N(C)C2=O [Example 126, (R)-2-Fluoro-N-(3-methyl-1-(3-methyl-2,4-dioxo-1,3,8-triazaspiro[4.5]decan-8-yl)-1-oxobutan-2-yl)-5-(trifluoromethyl)benzamide] | ≥ 1000 nM
3 | CC(C)[C@@H](NC(=O)c1cc(C(F)(F)F)ccc1F)C(=O)N1CCC2(CC1)C(=O)N(C)C(=O)N2c1cnn(C)c1 [Example 17, (R)-2-Fluoro-N-(3-methyl-1-(3-methyl-1-(1-methyl-1H-pyrazol-4-yl)-2,4-dioxo-1,3,8-triazaspiro[4.5]decan-8-yl)-1-oxobutan-2-yl)-5-(trifluoromethyl)benzamide] | ≥ 1000 nM
4 | CCc1ccc(F)c(C(=O)N[C@@H](C(=O)N2CCC3(CC2)C(=O)N(C)CN3c2ccc(OC)cc2)C(C)C)c1 [Example 202, (R)-5-Ethyl-2-fluoro-N-(1-(1-(4-methoxyphenyl)-3-methyl-4-oxo-1,3,8-triazaspiro[4.5]decan-8-yl)-3-methyl-1-oxobutan-2-yl)benzamide] | < 500 nM
5 | CCc1cc(F)cc(C(=O)N[C@@H](C(=O)N2CCC3(CC2)C(=O)N(C)C(=O)N3c2ccccc2)C(C)C)c1 [Example 47, (R)-3-Ethyl-5-fluoro-N-(3-methyl-1-(3-methyl-2,4-dioxo-1-phenyl-1,3,8-triazaspiro[4.5]decan-8-yl)-1-oxobutan-2-yl)benzamide] | 500 to 1000 nM
6 | Cc1nc2cc(CN3C(=O)N(C)C(=O)C34CCN(C(=O)[C@H](NC(=O)c3cc(C(F)(F)F)ccc3F)C(C)C)CC4)ccc2o1 [Example 116, (R)-2-Fluoro-N-(3-methyl-1-(3-methyl-1-((2-methylbenzo[d]oxazol-5-yl)methyl)-2,4-dioxo-1,3,8-triazaspiro[4.5]decan-8-yl)-1-oxobutan-2-yl)-5-(trifluoromethyl)benzamide] | < 500 nM
7 | Cc1cccc(C(=O)N[C@@H](C(=O)N2CCC3(CC2)C(=O)N(C)CN3c2ccc(B(O)O)cc2)C(C)C)c1F [Example 147, (R)-4-(8-(2-(2-Fluoro-3-methylbenzamido)-3-methylbutanoyl)-3-methyl-4-oxo-1,3,8-triazaspiro[4.5]decan-1-yl)phenylboronic Acid] | < 500 nM
8 | CC(C)[C@@H](NC(=O)c1cc(C(F)(F)F)ccc1F)C(=O)N1CCC2(CC1)C(=O)N(C)C(=O)N2c1ccc(=O)[nH]c1 [Example 22, (R)-2-Fluoro-N-(3-methyl-1-(3-methyl-2,4-dioxo-1-(6-oxo-1,6-dihydropyridin-3-yl)-1,3,8-triazaspiro[4.5]decan-8-yl)-1-oxobutan-2-yl)-5-(trifluoromethyl)benzamide] | ≥ 1000 nM
9 | CC(C)[C@@H](NC(=O)c1cc(C(F)(F)F)ccc1F)C(=O)N1CCC2(CC1)C(=O)N(C)CN2c1ccc(C(=O)O)c(Cl)c1 [Example 154, (R)-2-Chloro-4-(8-(2-(2-fluoro-5-(trifluoromethyl)benzamido)-3-methylbutanoyl)-3-methyl-4-oxo-1,3,8-triazaspiro[4.5]decan-1-yl)benzoic Acid] | < 500 nM
10 | CC(C)[C@@H](NC(=O)c1cc(C(F)(F)F)ccc1F)C(=O)N1CCC2(CC1)C(=O)N(C)C(=O)N2CC1CC1 [Example 75, (R)—N-(1-(1-(Cyclopropylmethyl)-3-methyl-2,4-dioxo-1,3,8-triazaspiro[4.5]decan-8-yl)-3-methyl-1-oxobutan-2-yl)-2-fluoro-5-(trifluoromethyl)benzamide] | ≥ 1000 nM
11 | CC(C)[C@@H](NC(=O)C12CC3CC(CC(C3)C1)C2)C(=O)N1CCC2(CC1)C(=O)N(C)CN2c1ccc(C(=O)O)cc1 [Example 164, (R)-4-(8-(2-(1-Admantanecarboxamido)-3-methylbutanoyl)-3-methyl-4-oxo-1,3,8-triazaspiro[4.5]decan-1-yl)benzoic Acid] | ≥ 1000 nM
12 | Cc1cccc(C(=O)N[C@@H](C(=O)N2CCC3(CC2)C(=O)N(C)CN3c2ccc(C#N)cc2)C(C)C)c1F [Example 179, (R)—N-(1-(1-(4-Cyanophenyl)-3-methyl-4-oxo-1,3,8-triazaspiro[4.5]decan-8-yl)-3-methyl-1-oxobutan-2-yl)-2-fluoro-3-methylbenzamide] | < 500 nM
13 | CCc1ccc(F)c(C(=O)N[C@@H](C(=O)N2CCC3(CC2)C(=O)N(C)CN3c2ccc(OCC#N)cc2)C(C)C)c1 [Example 170, (R)—N-(1-(1-(4-(Cyanomethoxy)phenyl)-3-methyl-4-oxo-1,3,8-triazaspiro[4.5]decan-8-yl)-3-methyl-1-oxobutan-2-yl)-5-ethyl-2-fluorobenzamide] | < 500 nM
14 | CC(C)[C@@H](NC(=O)c1cc(C(F)(F)F)ccc1F)C(=O)N1CCC2(CC1)C(=O)N(C)C(=O)N2c1ccccn1 [Example 188, (R)-2-Fluoro-N-(3-methyl-1-(3-methyl-2,4-dioxo-1-(pyridin-2-yl)-1,3,8-triaza-spiro[4.5]decan-8-yl)-1-oxobutan-2-yl)-5-(trifluoromethyl)benzamide] | 500 to 1000 nM
15 | CC(C)[C@@H](NC(=O)c1cc(Cl)cc(C(F)(F)F)c1)C(=O)N1CCC2(CC1)C(=O)N(C)C(=O)N2c1ccc2[nH]ncc2c1 [Example 60, (R)—N-(1-(1-(1H-Indazol-5-yl)-3-methyl-2,4-dioxo-1,3,8-triazaspiro[4.5]decan-8-yl)-3-methyl-1-oxobutan-2-yl)-3-chloro-5-(trifluoromethyl)benzamide] | < 500 nM
16 | CC(C)[C@@H](NC(=O)c1cc(C2CC2)ccc1F)C(=O)N1CCC2(CC1)C(=O)N(C)C(=O)N2c1ccccc1 [Example 42, (R)-5-Cyclopropyl-2-fluoro-N-(3-methyl-1-(3-methyl-2,4-dioxo-1-phenyl-1,3,8-triazaspiro[4.5]decan-8-yl)-1-oxobutan-2-yl)benzamide] | < 500 nM
17 | CC(C)[C@@H](NC(=O)c1ccccc1)C(=O)N1CCC2(CC1)C(=O)N(C)C(=O)N2c1ccc2[nH]ncc2c1 [Example 233, (R)—N-(1-(1-(1H-Indazol-5-yl)-3-methyl-2,4-dioxo-1,3,8-triazaspiro[4.5]decan-8-yl)-3-methyl-1-oxobutan-2-yl)benzamide] | ≥ 1000 nM
18 | Cc1nc2cc(CN3C(=O)N(C)C(=O)C34CCN(C(=O)[C@H](NC(=O)c3cc(C(F)(F)F)ccc3F)C(C)C)CC4)ccn2n1 [Example 114, (R)-2-Fluoro-N-(3-methyl-1-(3-methyl-1-((2-methyl-[1,2,4]triazolo[1,5-a]pyridin-7-yl)methyl)-2,4-dioxo-1,3,8-triazaspiro[4.5]decan-8-yl)-1-oxobutan-2-yl)-5-(trifluoromethyl)benzamide] | ≥ 1000 nM
19 | CN1CN(c2ccc(=O)n(C)c2)C2(CCN(C(=O)[C@H](NC(=O)c3cc(C(F)(F)F)ccc3F)C3CCCC3)CC2)C1=O [Example 208, (R)—N-(1-Cyclopentyl-2-(3-methyl-1-(1-methyl-6-oxo-1,6-dihydropyridin-3-yl)-4-oxo-1,3,8-triazaspiro[4.5]decan-8-yl)-2-oxoethyl)-2-fluoro-5-(trifluoromethyl)benzamide] | < 500 nM
20 | CC(C)[C@@H](NC(=O)c1cc(C(F)(F)F)ccc1F)C(=O)N1CCC2(CC1)C(=O)N(C)C(=O)N2c1ccc(C(=O)O)cc1 [Example 223, (R)-4-(8-(2-(2-Fluoro-5-(trifluoromethyl)benzamido)-3-methylbutanoyl)-3-methyl-2,4-dioxo-1,3,8-triazaspiro[4.5]decan-1-yl)benzoic Acid] | < 500 nM
21 | CC(C)[C@@H](NC(=O)c1cc(Cl)ccc1Cl)C(=O)N1CCC2(CC1)C(=O)N(C)C(=O)N2c1ccc2[nH]ncc2c1 [Example 65, (R)—N-(1-(1-(1H-Indazol-5-yl)-3-methyl-2,4-dioxo-1,3,8-triazaspiro[4.5]decan-8-yl)-3-methyl-1-oxobutan-2-yl)-2,5-dichlorobenzamide] | ≥ 1000 nM
22 | COc1ccc(F)c(C(=O)N[C@@H](C(=O)N2CCC3(CC2)C(=O)N(C)CN3c2ccc(C(=O)O)cc2)C(C)C)c1 [Example 163, (R)-4-(8-(2-(2-Fluoro-5-methoxybenzamido)-3-methylbutanoyl)-3-methyl-4-oxo-1,3,8-triazaspiro[4.5]decan-1-yl)benzoic Acid] | < 500 nM
23 | CC(C)[C@@H](NC(=O)c1cc(C(F)(F)F)ccc1F)C(=O)N1CCC2(CC1)C(=O)N(C)CN2c1ccc(=O)n(C)c1 [Example 204, (R)-2-Fluoro-N-(3-methyl-1-(3-methyl-1-(1-methyl-6-oxo-1,6-dihydropyridin-3-yl)-4-oxo-1,3,8-triazaspiro[4.5]decan-8-yl)-1-oxobutan-2-yl)-5-(trifluoromethyl)benzamide] | < 500 nM
24 | Cc1cccc(C(=O)N[C@@H](C(=O)N2CCC3(CC2)C(=O)N(C)C(=O)N3c2ccccc2)C2CCCCC2)c1 [Example 1, (R)—N-(1-Cyclohexyl-2-(3-methyl-2,4-dioxo-1-phenyl-1,3,8-triazaspiro[4.5]decan-8-yl)-2-oxoethyl)-3-methylbenzamide] | < 500 nM
